Experimental data taken from patent publication US20150018301A1, “LRRK-2-Mediated Neuronal Toxicity” (THE JOHNS HOPKINS UNIVERSITY, priority 2009, published 2015).

Key:
Assay type in all cases: biochemical
[1] = target: T1, LRRK2 G2019S (Homo sapiens, UniProt Q5S007, G2019S); assay: In vitro kinase assay: G2019S LRRK2-mediated MBP phosphorylation; details: mean of three experiments
Protocol: (§1) Transfection was performed by using Fugene HD reagent (Roche Applied Science) according to the manufacturer's instruction. For purification of recombinant LRRK1 and LRRK2 proteins, ACTA Purifier (GE Healthcare) FPLC system was used.
(§2) Resulting lysates were rotated at 4° C. for 30 min followed by centrifugation at 20,000×g for 15 min. The supernatants were injected into a GSTrap FF column pre-equilibrated with PBS at 0.5. mL/min flow after filtration using a 0.2 μm syringe filter (Corning). The bound proteins were eluted with buffer containing 10 mM GSH (Sigma), 150 mM NaCl, and 50 mM Tris-HCl (pH 8.0).
(§3) The in vitro kinase assay was performed as previously described. […] Recombinant LRRK2 and MBP or CST-4E-BP1 were combined before the kinase reaction. LRRK2 autophosphorylation is LRRK2 itself phosphorylation and MBP or GST-4E-BP1 phosphorylation is induced by LRRK2. After the kinase reaction, combined LRRK2 and MBP or GST-4E-BP1 were loaded on SDSPAGE and phosphorylated LRRK2 and MBP or GST-4E-BP1 could be detected separately an a single gel. Recombinant proteins and inhibitors were incubated at 30° C. in kinase assay buffer containing 20 mM Hepes (pH 7.4), 5 mM EGTA, and 20 mM β-glycerol phosphate. 0.5 μg MBP (Upstate) or 0.5 μg GST-4B-BP1, 50 μM ATP (Sigma), 20 mM MgCl2, and 1 μCi [γ-32P] ATP (PerkinElmer) was added after 5 min. The reaction was performed at 30° C. to reduce non-specific 32P incorporation for 15 min and terminated by the addition of 5×Laemmili sample buffer. […] Gels were stained by coomassie brilliant blue after fixation with 10% acetic acid and 40% methanol and then exposed to a Phosphoimager. Data were analyzed by ImageQuant 6.0 software.
(§4) To calculate the IC50 value, a dose-response curve was constructed and non-linear regression analysis using the equation for a sigmoid plot.

[2] = target: T2, LRRK2 WT (Homo sapiens, UniProt Q5S007); assay: In vitro kinase assay: LRRK2-mediated MBP phosphorylation; details: for IC50: mean of three experiments; for MBP phosphorylation Average ± SEM: compound 16 μM, 30° C., 15 min, normalized to absence of compound, mean ± S.E.M. of three experiments; for effect on LRRK2-mediated phosphorylation of MBP: screen at 16 μM
T2 sequence (Q5S007 whole entry): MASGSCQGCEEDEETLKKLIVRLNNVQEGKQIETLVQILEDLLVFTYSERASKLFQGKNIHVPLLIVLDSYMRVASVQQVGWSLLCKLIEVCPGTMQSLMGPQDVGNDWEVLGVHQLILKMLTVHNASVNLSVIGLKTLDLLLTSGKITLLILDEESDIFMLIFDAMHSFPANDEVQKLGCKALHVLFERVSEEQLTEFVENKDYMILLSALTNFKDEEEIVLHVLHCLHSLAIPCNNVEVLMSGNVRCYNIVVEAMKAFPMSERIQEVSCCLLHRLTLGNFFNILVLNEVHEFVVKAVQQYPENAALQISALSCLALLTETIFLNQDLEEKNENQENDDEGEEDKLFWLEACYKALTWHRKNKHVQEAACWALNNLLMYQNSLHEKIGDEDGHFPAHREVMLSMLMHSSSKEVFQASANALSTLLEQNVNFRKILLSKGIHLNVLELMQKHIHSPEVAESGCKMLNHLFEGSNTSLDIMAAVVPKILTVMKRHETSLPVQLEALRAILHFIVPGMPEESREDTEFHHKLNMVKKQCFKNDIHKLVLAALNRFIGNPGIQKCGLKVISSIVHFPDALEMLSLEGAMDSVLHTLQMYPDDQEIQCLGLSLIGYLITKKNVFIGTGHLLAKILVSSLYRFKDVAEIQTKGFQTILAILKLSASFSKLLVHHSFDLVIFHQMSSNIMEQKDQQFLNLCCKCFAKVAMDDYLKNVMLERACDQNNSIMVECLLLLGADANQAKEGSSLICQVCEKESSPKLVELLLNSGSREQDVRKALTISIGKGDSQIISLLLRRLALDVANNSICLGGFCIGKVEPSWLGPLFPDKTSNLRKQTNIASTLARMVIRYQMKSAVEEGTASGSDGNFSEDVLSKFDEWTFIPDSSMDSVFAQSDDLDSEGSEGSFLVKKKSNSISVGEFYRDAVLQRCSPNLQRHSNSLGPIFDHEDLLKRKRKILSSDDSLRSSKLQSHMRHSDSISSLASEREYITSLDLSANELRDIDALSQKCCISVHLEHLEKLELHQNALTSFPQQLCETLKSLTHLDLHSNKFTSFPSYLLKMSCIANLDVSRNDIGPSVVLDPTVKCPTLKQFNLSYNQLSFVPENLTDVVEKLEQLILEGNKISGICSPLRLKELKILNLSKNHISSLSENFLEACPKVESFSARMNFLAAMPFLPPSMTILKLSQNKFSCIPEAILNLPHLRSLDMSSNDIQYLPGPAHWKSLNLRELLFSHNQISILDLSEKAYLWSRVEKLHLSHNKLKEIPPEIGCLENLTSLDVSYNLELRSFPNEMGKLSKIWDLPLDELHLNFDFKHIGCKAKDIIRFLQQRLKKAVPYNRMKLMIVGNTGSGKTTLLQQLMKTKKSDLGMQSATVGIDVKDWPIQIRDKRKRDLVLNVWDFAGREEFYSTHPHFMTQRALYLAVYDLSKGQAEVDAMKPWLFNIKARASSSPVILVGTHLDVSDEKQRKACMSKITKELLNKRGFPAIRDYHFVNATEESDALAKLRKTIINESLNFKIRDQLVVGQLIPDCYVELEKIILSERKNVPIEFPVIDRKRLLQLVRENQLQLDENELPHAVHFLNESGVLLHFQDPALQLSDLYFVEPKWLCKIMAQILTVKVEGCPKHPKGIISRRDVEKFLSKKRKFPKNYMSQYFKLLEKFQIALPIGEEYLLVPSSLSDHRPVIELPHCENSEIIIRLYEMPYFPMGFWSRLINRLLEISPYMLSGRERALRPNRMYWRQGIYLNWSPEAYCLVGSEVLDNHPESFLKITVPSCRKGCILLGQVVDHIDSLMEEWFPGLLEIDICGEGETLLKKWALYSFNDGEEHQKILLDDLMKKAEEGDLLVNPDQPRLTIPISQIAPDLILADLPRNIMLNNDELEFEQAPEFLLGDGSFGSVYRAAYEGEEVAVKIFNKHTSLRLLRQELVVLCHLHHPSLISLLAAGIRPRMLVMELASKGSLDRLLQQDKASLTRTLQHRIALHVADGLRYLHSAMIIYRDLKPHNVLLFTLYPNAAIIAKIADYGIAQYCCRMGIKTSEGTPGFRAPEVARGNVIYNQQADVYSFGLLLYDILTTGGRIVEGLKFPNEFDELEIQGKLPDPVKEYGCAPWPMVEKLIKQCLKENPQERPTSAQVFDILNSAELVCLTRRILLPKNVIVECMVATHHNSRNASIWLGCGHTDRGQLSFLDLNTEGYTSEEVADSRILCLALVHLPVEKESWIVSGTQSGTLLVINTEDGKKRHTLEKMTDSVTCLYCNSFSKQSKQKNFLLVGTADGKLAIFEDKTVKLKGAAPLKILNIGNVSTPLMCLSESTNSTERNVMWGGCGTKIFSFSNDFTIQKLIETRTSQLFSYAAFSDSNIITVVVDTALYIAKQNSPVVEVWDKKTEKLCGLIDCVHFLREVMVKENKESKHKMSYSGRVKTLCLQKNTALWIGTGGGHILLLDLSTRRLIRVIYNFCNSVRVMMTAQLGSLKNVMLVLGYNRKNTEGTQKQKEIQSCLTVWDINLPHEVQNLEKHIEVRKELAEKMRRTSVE

[3] = target: T2, LRRK2 WT; assay: In vitro kinase assay: LRRK2 autophosphorylation; details: for IC50: mean of three experiments; for LRRK2 autophosphorylation Average ± SEM: compound 16 μM, phosphorylation normalized to absence of compound, mean ± S.E.M. of three experiments; for effect on LRRK2 autophosphorylation: screen at 16 μM
[4] = target: T1, LRRK2 G2019S; assay: In vitro kinase assay: G2019S LRRK2 autophosphorylation; details: mean of three experiments
Protocol: as §1, §2, §3, §4

[5] = target: T3, LRRK1 WT (Homo sapiens, UniProt Q38SD2); assay: In vitro kinase assay: LRRK1-mediated MBP phosphorylation
T3 sequence (Q38SD2 whole entry): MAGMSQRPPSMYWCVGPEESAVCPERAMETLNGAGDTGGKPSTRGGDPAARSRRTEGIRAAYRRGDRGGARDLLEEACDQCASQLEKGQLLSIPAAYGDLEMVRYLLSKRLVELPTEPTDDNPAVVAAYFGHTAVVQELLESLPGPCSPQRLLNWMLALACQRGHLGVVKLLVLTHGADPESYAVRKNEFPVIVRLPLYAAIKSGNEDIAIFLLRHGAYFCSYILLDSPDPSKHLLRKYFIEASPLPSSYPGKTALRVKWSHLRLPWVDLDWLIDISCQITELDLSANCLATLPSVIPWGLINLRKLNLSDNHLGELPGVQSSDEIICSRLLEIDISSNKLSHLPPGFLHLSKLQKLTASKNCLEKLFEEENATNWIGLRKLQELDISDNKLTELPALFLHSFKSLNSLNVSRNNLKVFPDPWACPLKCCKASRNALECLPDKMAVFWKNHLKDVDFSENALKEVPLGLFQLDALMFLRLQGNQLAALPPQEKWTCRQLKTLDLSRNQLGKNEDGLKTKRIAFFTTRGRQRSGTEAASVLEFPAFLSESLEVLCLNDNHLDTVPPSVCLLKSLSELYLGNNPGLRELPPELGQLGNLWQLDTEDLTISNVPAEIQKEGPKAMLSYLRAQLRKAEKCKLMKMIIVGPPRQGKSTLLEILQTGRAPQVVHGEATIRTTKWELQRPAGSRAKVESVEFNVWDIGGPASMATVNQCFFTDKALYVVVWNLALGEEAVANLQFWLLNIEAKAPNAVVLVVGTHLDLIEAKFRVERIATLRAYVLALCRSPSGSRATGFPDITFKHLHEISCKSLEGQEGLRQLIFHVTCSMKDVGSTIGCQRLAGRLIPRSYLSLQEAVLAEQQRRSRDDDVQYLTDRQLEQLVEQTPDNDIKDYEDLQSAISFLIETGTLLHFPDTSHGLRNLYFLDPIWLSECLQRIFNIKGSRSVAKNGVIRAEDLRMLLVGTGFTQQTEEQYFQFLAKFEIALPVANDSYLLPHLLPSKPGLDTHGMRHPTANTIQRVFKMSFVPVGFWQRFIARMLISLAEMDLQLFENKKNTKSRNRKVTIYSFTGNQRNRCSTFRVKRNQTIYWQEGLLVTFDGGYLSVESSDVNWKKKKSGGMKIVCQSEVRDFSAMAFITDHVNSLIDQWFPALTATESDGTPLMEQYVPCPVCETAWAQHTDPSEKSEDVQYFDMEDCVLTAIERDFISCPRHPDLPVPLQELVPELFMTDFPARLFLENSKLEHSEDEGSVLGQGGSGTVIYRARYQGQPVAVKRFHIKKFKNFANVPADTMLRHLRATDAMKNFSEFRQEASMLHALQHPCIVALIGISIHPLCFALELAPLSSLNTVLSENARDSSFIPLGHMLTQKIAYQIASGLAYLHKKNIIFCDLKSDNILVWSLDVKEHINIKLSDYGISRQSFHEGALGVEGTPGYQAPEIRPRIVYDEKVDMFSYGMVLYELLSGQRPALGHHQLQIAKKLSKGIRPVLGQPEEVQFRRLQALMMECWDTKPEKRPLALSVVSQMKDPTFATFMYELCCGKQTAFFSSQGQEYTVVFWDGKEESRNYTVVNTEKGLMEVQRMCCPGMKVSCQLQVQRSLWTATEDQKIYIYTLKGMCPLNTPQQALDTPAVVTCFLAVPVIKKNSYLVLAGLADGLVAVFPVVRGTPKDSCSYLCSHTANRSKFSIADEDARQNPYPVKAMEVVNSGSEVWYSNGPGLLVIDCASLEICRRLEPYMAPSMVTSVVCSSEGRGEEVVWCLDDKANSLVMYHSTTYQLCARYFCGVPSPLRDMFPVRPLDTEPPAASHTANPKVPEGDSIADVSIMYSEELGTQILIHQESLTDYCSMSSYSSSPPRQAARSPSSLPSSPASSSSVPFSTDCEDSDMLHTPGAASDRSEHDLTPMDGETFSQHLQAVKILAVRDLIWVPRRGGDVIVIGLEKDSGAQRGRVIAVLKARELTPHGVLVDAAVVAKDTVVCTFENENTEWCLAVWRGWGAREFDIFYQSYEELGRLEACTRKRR

[6] = target: T3, LRRK1 WT; assay: In vitro kinase assay: LRRK1 autophosphorylation

T1 sequence (Q5S007 whole entry G2019S): as the sequence (Q5S007 whole entry) above, with G2019S counted along it

Compound	MBP phosphorylation Average ± SEM [2]	LRRK2 autophosphorylation Average ± SEM [3]	also measured
O=C1c2ccccc2-c2n[nH]c3cccc1c23 [Inhibitor 68, SP600125, reference compound]	31.2 ± 12.1 % of control	18.3 ± 22.8 % of control	IC50 ([1]; Table 2): 5 µM; IC50 ([2]; Table 2): 3.1 µM; effect on LRRK2-mediated phosphorylation of MBP [2]: substantially inhibited; IC50 ([3]; Table 2): 3.71 µM; effect on LRRK2 autophosphorylation [3]: substantially inhibited; IC50 ([4]; Table 2): 3.37 µM
CN(C)CCCn1cc(C2=C(c3c[nH]c4ccccc34)C(=O)NC2=O)c2ccccc21 [Inhibitor 31, GP109203X, reference compound]	13.0 ± 8.2 % of control	16.1 ± 8.8 % of control	IC50 ([1]; Table 2): 2.62 µM; IC50 ([2]; Table 2): 2.19 µM; effect on LRRK2-mediated phosphorylation of MBP [2]: substantially inhibited; IC50 ([3]; Table 2): 5.27 µM; effect on LRRK2 autophosphorylation [3]: substantially inhibited; IC50 ([4]; Table 2): 17 µM
Raf inhibitor IV	–	–	effect on LRRK1 MBP phosphorylation [5]: minimal to no effect; IC50 ([5]; Table 3, mean of three experiments): 21.5 µM; IC50 ([1]; Table 3): 6.51 µM; IC50 ([2]; Table 3): 3.61 µM; selectivity for LRRK2 kinase activity ([3]; LRRK2 versus LRRK1 kinase activity): relatively selective; IC50 ([3]; Table 3): 5.43 µM; IC50 ([4]; Table 3): 3.94 µM; effect on LRRK1 autophosphorylation [6]: minimal to no effect
Cn1cc(C2=C(c3cn(CCCSC(=N)N)c4ccccc34)C(=O)NC2=O)c2ccccc21 [Inhibitor 33, Ro31-8220, reference compound]	26.0 ± 38.5 % of control	5.4 ± 3.0 % of control	IC50 ([1]; Table 2): 5.16 µM; IC50 ([2]; Table 2): 0.05 µM; effect on LRRK2-mediated phosphorylation of MBP [2]: substantially inhibited; IC50 ([3]; Table 2): 1.64 µM; effect on LRRK2 autophosphorylation [3]: substantially inhibited; IC50 ([4]; Table 2): 4.51 µM
Nc1ncnc2c1c(I)cn2[C@@H]1O[C@H](CO)[C@@H](O)[C@H]1O [Inhibitor 49, 5-iodo-tubercidin, reference compound]	39.3 ± 9.9 % of control	29.4 ± 14.7 % of control	IC50 ([1]; Table 2): 3.41 µM; IC50 ([2]; Table 2): 14.8 µM; effect on LRRK2-mediated phosphorylation of MBP [2]: substantially inhibited; IC50 ([3]; Table 2): 3.21 µM; effect on LRRK2 autophosphorylation [3]: substantially inhibited; IC50 ([4]; Table 2): 4.23 µM
COc1ccc(S(=O)(=O)N(CCO)c2ccccc2CN(C)C/C=C/c2ccc(Cl)cc2)cc1 [Inhibitor 41, KN-93]	–	–	effect on LRRK1 MBP phosphorylation [5]: no effect; effect on LRRK2-mediated phosphorylation of MBP [2]: no effect; effect on LRRK1 autophosphorylation [6]: no effect
COc1c(C=O)c(O)cc2c1C(=O)c1ccccc1C2=O [Inhibitor 22, Damnacanthal, reference compound]	35.7 ± 10.3 % of control	34.7 ± 6.2 % of control	IC50 ([1]; Table 2): 9.45 µM; IC50 ([2]; Table 2): 7.81 µM; effect on LRRK2-mediated phosphorylation of MBP [2]: substantially inhibited; IC50 ([3]; Table 2): 19.1 µM; effect on LRRK2 autophosphorylation [3]: substantially inhibited; IC50 ([4]; Table 2): 5.25 µM
CN(C)c1ccc(/C=C2\C(=O)Nc3ccccc32)cc1 [Inhibitor 54]	112.8 ± 34.9 % of control	37.5 ± 13.9 % of control	–
C/C(O)=C(\C#N)C(=O)Nc1cc(Br)ccc1Br [Inhibitor 50]	138.8 ± 53.5 % of control	66.8 ± 14.2 % of control	–
N#C/C(=C/c1cc(Cl)cc(Cl)c1)c1cccnc1 [Inhibitor 10]	45.2 ± 46.1 % of control	90.8 ± 30.7 % of control	–
O=C(O)c1cc(N(Cc2ccccc2O)Cc2cc(O)ccc2O)ccc1O [Inhibitor 9]	65.2 ± 35.5 % of control	84.3 ± 21.1 % of control	–
Cc1cc(O)c2c(=O)c3c(O)cc(O)c4c5c(O)cc(O)c6c(=O)c7c(O)cc(C)c8c1c2c(c34)c(c78)c65 [Inhibitor 32]	160.9 ± 12 % of control	57.4 ± 30.1 % of control	–
CC(C)c1cc(/C=C(\C#N)C(=O)NCCCc2ccccc2)cc(C(C)C)c1O [Inhibitor 63]	101.3 ± 25.3 % of control	68.5 ± 1.5 % of control	–
COC(=O)/C=C/c1cc(O)ccc1O [Inhibitor 61]	93.9 ± 11.5 % of control	73.0 ± 5.3 % of control	–
C=CC(=O)c1ccc2ccccc2c1 [Inhibitor 64]	123.7 ± 26.3 % of control	70.7 ± 4.2 % of control	–
N#CC(C#N)=Cc1ccc([N+](=O)[O-])c(O)c1 [Inhibitor 26]	114.3 ± 14.1 % of control	82.3 ± 10.5 % of control	–
O=P(O)(O)CCc1ccc2ccccc2c1O [Inhibitor 21]	138.2 ± 36.9 % of control	120.8 ± 54.1 % of control	–
CN([C@@H](Cc1ccc(OS(=O)(=O)c2cccc3cnccc23)cc1)C(=O)N1CCN(c2ccccc2)CC1)S(=O)(=O)c1cccc2cnccc12 [Inhibitor 40]	125.2 ± 68.8 % of control	83.1 ± 22.1 % of control	–
Cc1ccc(S(=O)(=O)/C=C/C#N)cc1 [Inhibitor 65]	124.8 ± 23.5 % of control	75.1 ± 12.8 % of control	–
O=S(=O)(c1cccc2cnccc12)N1CCCNCC1 [Inhibitor 38]	120.4 ± 64.7 % of control	84.3 ± 21.9 % of control	–
CC(C)(C)c1cc(/C=C(\C#N)C(N)=S)cc(C(C)(C)C)c1O [Inhibitor 28]	76.7 ± 4.5 % of control	69.8 ± 12.0 % of control	–
N#C/C(=C\c1ccc(O)c(O)c1)C(=O)NCc1ccccc1 [Inhibitor 25]	82.9 ± 17.7 % of control	78.5 ± 5.8 % of control	–
N#C/C(=C\c1ccc(O)c(O)c1)C(N)=O [Inhibitor 13]	117.3 ± 18.5 % of control	81.0 ± 13.4 % of control	–
COc1cccc(-c2cc(=O)c3ccccc3o2)c1N [Inhibitor 1]	77.5 ± 55.0 % of control	77.9 ± 30.6 % of control	–
O=S(=O)(NCCNC/C=C/c1ccc(Br)cc1)c1cccc2cnccc12 [Inhibitor 35]	85.3 ± 54.2 % of control	90.8 ± 2.5 % of control	–
CC1(C)[C@H](C=C(Cl)Cl)[C@@H]1C(=O)O[C@H](C#N)c1cccc(Oc2ccccc2)c1 [Inhibitor 80]	76.9 ± 13.7 % of control	66.4 ± 17.4 % of control	–
Cn1cnc2c(NCc3ccccc3)nc(NCCO)nc21 [Inhibitor 46]	125.3 ± 45.6 % of control	72.5 ± 2.1 % of control	–
O=c1c(O)c(-c2ccc(O)c(O)c2)oc2cc(O)cc(O)c12 [Inhibitor 62, Quercetin dihydrate]	70.1 ± 40.5 % of control	39.2 ± 39.9 % of control	–
C[S+]([O-])c1ccc(-c2nc(-c3ccc(F)cc3)c(-c3ccncc3)[nH]2)cc1 (centres unmarked) [Inhibitor 3]	105.9 ± 15.9 % of control	75.1 ± 7.8 % of control	–
